From article PMC8105715, “Modeling of full-length Piezo1 suggests importance of the proximal N-terminus for dome structure” (Biophysical Journal, 2021)

Target: T1, human Piezo1 (Homo sapiens, UniProt Q92508)
T1 construct: stably expressed in HEK 293 TREx cells, tetracycline-inducible (P1 HEK TREx); homotrimer
Assay: fura-2 intracellular Ca2+ plate-reader assay, inhibition of Yoda1-evoked response
Assay type: cell-based
Settings: unreliable (estimated; limited solubility); 5 uM Yoda1; cells pretreated 30 min at 37 C with cholesterol-MbetaCD complex; nominal bath concentration; site not shown, may act through membrane; pH 7.4

T1 sequence (Q92508 whole entry): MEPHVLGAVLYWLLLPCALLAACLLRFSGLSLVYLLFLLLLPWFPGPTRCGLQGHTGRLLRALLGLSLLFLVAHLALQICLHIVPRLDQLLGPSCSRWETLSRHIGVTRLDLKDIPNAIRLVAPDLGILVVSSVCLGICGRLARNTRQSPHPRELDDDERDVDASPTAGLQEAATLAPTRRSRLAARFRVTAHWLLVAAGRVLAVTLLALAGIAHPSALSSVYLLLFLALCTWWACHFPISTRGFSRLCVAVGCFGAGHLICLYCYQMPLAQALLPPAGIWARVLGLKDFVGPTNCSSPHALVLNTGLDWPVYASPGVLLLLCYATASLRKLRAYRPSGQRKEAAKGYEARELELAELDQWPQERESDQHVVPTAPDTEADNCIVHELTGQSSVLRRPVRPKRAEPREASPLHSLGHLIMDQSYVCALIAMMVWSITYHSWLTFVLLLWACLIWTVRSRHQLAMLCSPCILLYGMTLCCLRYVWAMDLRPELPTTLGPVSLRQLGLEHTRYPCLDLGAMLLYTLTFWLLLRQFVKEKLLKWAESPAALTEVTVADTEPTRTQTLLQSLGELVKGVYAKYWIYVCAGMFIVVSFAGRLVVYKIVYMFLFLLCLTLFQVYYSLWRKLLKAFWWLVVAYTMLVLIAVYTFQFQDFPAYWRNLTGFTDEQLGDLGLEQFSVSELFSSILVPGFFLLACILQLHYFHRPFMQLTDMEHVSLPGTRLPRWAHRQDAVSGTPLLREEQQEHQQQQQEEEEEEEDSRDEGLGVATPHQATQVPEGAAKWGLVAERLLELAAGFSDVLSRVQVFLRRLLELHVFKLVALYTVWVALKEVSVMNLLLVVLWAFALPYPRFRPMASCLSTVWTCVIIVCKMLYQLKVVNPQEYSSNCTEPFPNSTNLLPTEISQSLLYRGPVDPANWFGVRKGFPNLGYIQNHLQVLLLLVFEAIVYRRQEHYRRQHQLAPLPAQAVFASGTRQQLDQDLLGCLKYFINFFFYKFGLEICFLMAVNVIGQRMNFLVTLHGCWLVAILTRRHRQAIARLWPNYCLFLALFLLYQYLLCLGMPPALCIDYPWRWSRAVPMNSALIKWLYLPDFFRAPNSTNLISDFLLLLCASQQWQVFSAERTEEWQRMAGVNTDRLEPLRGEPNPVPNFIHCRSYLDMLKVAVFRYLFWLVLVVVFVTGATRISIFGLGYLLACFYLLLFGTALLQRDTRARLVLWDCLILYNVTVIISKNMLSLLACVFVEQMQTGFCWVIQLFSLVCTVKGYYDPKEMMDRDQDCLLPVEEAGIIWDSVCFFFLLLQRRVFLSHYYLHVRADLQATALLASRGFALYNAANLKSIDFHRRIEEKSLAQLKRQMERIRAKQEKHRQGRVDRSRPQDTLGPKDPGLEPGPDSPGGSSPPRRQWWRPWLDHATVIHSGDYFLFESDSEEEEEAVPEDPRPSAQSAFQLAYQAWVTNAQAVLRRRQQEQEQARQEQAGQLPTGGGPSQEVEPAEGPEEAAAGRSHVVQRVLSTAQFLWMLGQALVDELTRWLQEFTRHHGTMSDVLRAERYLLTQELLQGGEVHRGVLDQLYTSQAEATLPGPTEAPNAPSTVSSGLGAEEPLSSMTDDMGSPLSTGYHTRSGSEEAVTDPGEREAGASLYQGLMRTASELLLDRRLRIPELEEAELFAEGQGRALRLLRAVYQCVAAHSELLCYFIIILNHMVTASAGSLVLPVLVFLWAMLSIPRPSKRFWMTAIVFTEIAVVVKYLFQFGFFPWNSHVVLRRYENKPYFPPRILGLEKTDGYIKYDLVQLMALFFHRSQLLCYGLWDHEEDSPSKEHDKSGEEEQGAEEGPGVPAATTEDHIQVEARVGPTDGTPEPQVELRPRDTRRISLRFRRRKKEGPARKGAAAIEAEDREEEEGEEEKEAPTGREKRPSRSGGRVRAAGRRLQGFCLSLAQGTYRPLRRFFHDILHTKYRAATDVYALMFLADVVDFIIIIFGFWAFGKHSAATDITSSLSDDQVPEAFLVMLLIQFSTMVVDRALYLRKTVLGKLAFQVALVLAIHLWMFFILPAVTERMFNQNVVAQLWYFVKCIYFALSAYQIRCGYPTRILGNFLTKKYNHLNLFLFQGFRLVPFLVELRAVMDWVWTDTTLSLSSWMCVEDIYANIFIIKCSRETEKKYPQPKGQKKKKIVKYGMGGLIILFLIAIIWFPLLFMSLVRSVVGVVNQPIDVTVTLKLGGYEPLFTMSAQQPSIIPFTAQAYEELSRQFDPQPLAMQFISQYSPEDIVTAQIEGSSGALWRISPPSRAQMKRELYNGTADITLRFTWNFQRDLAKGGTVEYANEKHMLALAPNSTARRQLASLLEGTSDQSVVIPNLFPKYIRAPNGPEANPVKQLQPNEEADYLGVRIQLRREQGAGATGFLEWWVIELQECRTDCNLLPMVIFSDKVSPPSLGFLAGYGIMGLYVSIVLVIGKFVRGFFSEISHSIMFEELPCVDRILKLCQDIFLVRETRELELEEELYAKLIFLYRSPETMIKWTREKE

## CC(C)CCC[C@@H](C)[C@H]1CC[C@H]2[C@@H]3CC=C4C[C@@H](O)CC[C@]4(C)[C@H]3CC[C@]12C [cholesterol]
  IC50: 150 µM
